Measurements from patent US11213499B1, “Use of 3,3′-diselenodipropionic acid (DSePA) as an anticancer agent” (Secretary, Department of Atomic Energy, priority 2020, dated 2022).

Test system: human K562 xenograft
Experiment: Anti-tumor effect in human K562 xenograft model
Format: in vivo
Conditions: for mortality: study period of 30 days
Experimental: These xenografts representative of NSCLC and CML respectively are considered to be highly aggressive and resistant to chemotherapy treatment. Therefore, any new chemotherapy agent against these cancers is very much sought. For the experiment, a total of 12 mice bearing A549 or K562 tumors of volume in the range of ˜50 mm^3 were divided into two groups (I & II), each group comprising of six mice. […] The group II was administered DSePA daily dissolved in sterile saline through oral route at a dosage of 1 mg/Kg body weight. The tumor volume and body weight of mice from each group were monitored daily for a total period of 30 days from the day of start. The animals were also checked for mortality if any throughout the study period. The experiment in A549 tumor was repeated three times (n=18 for each group) and the experiment in K562 tumor was repeated two times (n=12 for each group). […] This is the first study to show the anticancer activity of DSePA per se using xenograft model of human lung cancer (A549) and human leukemia (K562) cells in mice. Discovery of the application of the anticancer activity of DSePA is a novel invention in context of its probable usage in treatment for lung and leukemia cancer. More specifically the invention proposes a treatment regime and route of administering DSePA to inhibit the growth of human NSCLC (A549) and CML (K562).
For the optimization of the oral dosage of DSePA, a total of 24 mice bearing A549 or K562 xenograft of volume in the range of ˜50 mm^3 were divided into four groups (I-IV), each group comprising of six mice. […] The groups II, III and IV were administered DSePA dissolved in sterile saline through oral route at the dosage of 1, 2.5 and 5 mg/kg body weight respectively. The administration of DSePA was performed daily for 4 weeks. The tumor volume and body weight of mice from each group were monitored daily for a total period of 30 days from the day of start. The animals were also checked for mortality if any throughout the study period.
Animal maintenance—All animal studies were approved by the Institutional Animal Ethics Committee. Animals were housed under standard conditions (20±2° C., 65-70% humidity, 12 h/12 h day/night cycle, balanced laboratory diet and tap water ad libitum.
Xenograft tumor model-A549 and K562 tumor models were developed by Anticancer Drug Screening Facility of Advanced Centre for Treatment, Research and Education in Cancer (ACTREC), India. Briefly, Male/female NOD-SCID aged 6-7 weeks were housed in the laboratory animal facility of ACTREC. Donor mice carrying K562 or A549 xenografts were developed by injecting 2×10^6 cells in 100 μl of DMEM/RPMI, subcutaneously in their right flank. When tumors attained the size of approximately 2000 mm^3, the animals were sacrificed. Tumors were obtained and further cut into 2-3 mm fragments and implanted subcutaneously in the right flank of 6-7 weeks old recipient SCID mice. Tumors were allowed to grow to a size of approximately 50 mm^3 following which animals were divided into groups of six animals each for evaluation. A fresh DSePA solution was prepared by dissolution in sterile saline before each administration by intraperitoneal/oral route. The tumor efficacy of DSePA was determined by monitoring parameters like tumor volume and T/C. Tumors were assumed spherical and volume was calculated using following equations (1 & 2): […]
Where d1 (mm) and d2 (mm) are diameters measured in two perpendicular planes. T/C is defined as the ratio of the mean tumor volume of DSePA treated groups with the mean tumor volume of control group on the day of observation.

[1] = 1 mg/kg body weight daily oral, day 1
[2] = 1 mg/kg body weight daily oral, day 5
[3] = 1 mg/kg body weight daily oral, day 9
[4] = 1 mg/kg body weight daily oral, day 12
[5] = 1 mg/kg body weight daily oral, day 15
[6] = 1 mg/kg body weight daily oral, day 18
[7] = 1 mg/kg body weight daily oral, day 21
[8] = 1 mg/kg body weight daily oral, day 24
[9] = 1 mg/kg body weight daily oral, day 27
[10] = 1 mg/kg body weight daily oral, day 32
[11] = 2.5 mg/kg body weight daily oral, day 1
[12] = 2.5 mg/kg body weight daily oral, day 5
[13] = 2.5 mg/kg body weight daily oral, day 9
[14] = 2.5 mg/kg body weight daily oral, day 12
[15] = 2.5 mg/kg body weight daily oral, day 15
[16] = 2.5 mg/kg body weight daily oral, day 18
[17] = 2.5 mg/kg body weight daily oral, day 21
[18] = 2.5 mg/kg body weight daily oral, day 24
[19] = 2.5 mg/kg body weight daily oral, day 27
[20] = 2.5 mg/kg body weight daily oral, day 32
[21] = 5 mg/kg body weight daily oral, day 1
[22] = 5 mg/kg body weight daily oral, day 5
[23] = 5 mg/kg body weight daily oral, day 9
[24] = 5 mg/kg body weight daily oral, day 12
[25] = 5 mg/kg body weight daily oral, day 15
[26] = 5 mg/kg body weight daily oral, day 18
[27] = 5 mg/kg body weight daily oral, day 21
[28] = 5 mg/kg body weight daily oral, day 24
[29] = 5 mg/kg body weight daily oral, day 27
[30] = 5 mg/kg body weight daily oral, day 32

O=C(O)CC[Se][Se]CCC(=O)O [DSePA, 3,3′-diselenodipropionic acid]
tumor growth inhibition vs control (1 mg/Kg body weight daily oral, two independent experiments): significantly (P<0.05) inhibited the growth | overall reduction (relative tumor volume vs tumor control) (1 mg/Kg orally daily, end of study period (30 days), n=12, P=0.011): ~3.7 folds | mortality (1 mg/Kg orally daily, two independent studies): did not show any mortality | % S (Survival) [1]: 100% | RTV (Relative Tumor Volume) [1]: 1 | T/C (T (test)/C (control)) [1]: 1 | % S (Survival) [2]: 100% | RTV (Relative Tumor Volume) [2]: 1.13 | T/C (T (test)/C (control)) [2]: 0.80 | % S (Survival) [3]: 100% | RTV (Relative Tumor Volume) [3]: 1.13 | T/C (T (test)/C (control)) [3]: 0.79 | % S (Survival) [4]: 100% | RTV (Relative Tumor Volume) [4]: 1.22 | T/C (T (test)/C (control)) [4]: 0.48 | % S (Survival) [5]: 100% | RTV (Relative Tumor Volume) [5]: 1.42 | T/C (T (test)/C (control)) [5]: 0.37 | % S (Survival) [6]: 100% | RTV (Relative Tumor Volume) [6]: 2.28 | T/C (T (test)/C (control)) [6]: 0.38 | % S (Survival) [7]: 100% | RTV (Relative Tumor Volume) [7]: 1.90 | T/C (T (test)/C (control)) [7]: 0.33 | % S (Survival) [8]: 100% | RTV (Relative Tumor Volume) [8]: 2.22 | T/C (T (test)/C (control)) [8]: 0.24 | % S (Survival) [9]: 100% | RTV (Relative Tumor Volume) [9]: 3.24 | T/C (T (test)/C (control)) [9]: 0.32 | % S (Survival) [10]: 100% | RTV (Relative Tumor Volume) [10]: 4.38 | T/C (T (test)/C (control)) [10]: 0.36 | % S (Survival) [11]: 100% | RTV (Relative Tumor Volume) [11]: 1 | T/C (T (test)/C (control)) [11]: 1 | % S (Survival) [12]: 100% | RTV (Relative Tumor Volume) [12]: 1.09 | T/C (T (test)/C (control)) [12]: 0.76 | % S (Survival) [13]: 100% | RTV (Relative Tumor Volume) [13]: 1.01 | T/C (T (test)/C (control)) [13]: 0.70 | % S (Survival) [14]: 100% | RTV (Relative Tumor Volume) [14]: 1.42 | T/C (T (test)/C (control)) [14]: 0.56 | % S (Survival) [15]: 100% | RTV (Relative Tumor Volume) [15]: 1.66 | T/C (T (test)/C (control)) [15]: 0.43 | % S (Survival) [16]: 100% | RTV (Relative Tumor Volume) [16]: 1.79 | T/C (T (test)/C (control)) [16]: 0.30 | % S (Survival) [17]: 100% | RTV (Relative Tumor Volume) [17]: 1.54 | T/C (T (test)/C (control)) [17]: 0.26 | % S (Survival) [18]: 100% | RTV (Relative Tumor Volume) [18]: 1.23 | T/C (T (test)/C (control)) [18]: 0.13 | % S (Survival) [19]: 100% | RTV (Relative Tumor Volume) [19]: 1.74 | T/C (T (test)/C (control)) [19]: 0.17 | % S (Survival) [20]: 100% | RTV (Relative Tumor Volume) [20]: 2.21 | T/C (T (test)/C (control)) [20]: 0.18 | % S (Survival) [21]: 100% | RTV (Relative Tumor Volume) [21]: 1 | T/C (T (test)/C (control)) [21]: 1 | % S (Survival) [22]: 100% | RTV (Relative Tumor Volume) [22]: 1.04 | T/C (T (test)/C (control)) [22]: 0.73 | % S (Survival) [23]: 100% | RTV (Relative Tumor Volume) [23]: 1.05 | T/C (T (test)/C (control)) [23]: 0.73 | % S (Survival) [24]: 100% | RTV (Relative Tumor Volume) [24]: 1.32 | T/C (T (test)/C (control)) [24]: 0.52 | % S (Survival) [25]: 100% | RTV (Relative Tumor Volume) [25]: 1.11 | T/C (T (test)/C (control)) [25]: 0.29 | % S (Survival) [26]: 100% | RTV (Relative Tumor Volume) [26]: 1.29 | T/C (T (test)/C (control)) [26]: 0.22 | % S (Survival) [27]: 100% | RTV (Relative Tumor Volume) [27]: 1.22 | T/C (T (test)/C (control)) [27]: 0.21 | % S (Survival) [28]: 100% | RTV (Relative Tumor Volume) [28]: 1.25 | T/C (T (test)/C (control)) [28]: 0.13 | % S (Survival) [29]: 100% | RTV (Relative Tumor Volume) [29]: 1.73 | T/C (T (test)/C (control)) [29]: 0.17 | % S (Survival) [30]: 100% | RTV (Relative Tumor Volume) [30]: 2.45 | T/C (T (test)/C (control)) [30]: 0.20 | tumor growth inhibition vs control (dosage optimization, 1 mg/kg body weight daily oral for 4 weeks): significantly (P<0.05) inhibited the growth of K562 tumor from the day 15 onwards | tumor growth inhibition vs control (dosage optimization, 2.5 mg/kg body weight daily oral for 4 weeks): significantly (P<0.05) inhibited the growth of K562 tumor from the day 15 onwards | tumor growth inhibition vs control (dosage optimization, 5 mg/kg body weight daily oral for 4 weeks): significantly (P<0.05) inhibited the growth of K562 tumor from the day 15 onwards | mortality (dosage optimization, 1, 2.5 and 5 mg/kg daily oral): did not show any mortality | T/C achieved (leukemia model, 1 mg/kg body weight daily oral): ≤ 0.42 | minimum dosage to achieve optimum efficacy (oral daily): 1 mg/kg body weight
